Values after ≈ are worked out from the molar mass of the structure shown. Values joined by “and” are separate entries in the source; they are usually repeats but may differ in a detail not shown here. Equal values may be shown once. Read-outs that look alike come from different tables or passages of the source.
Legend:
E. coli K12 MG1655 = assay: MIC testing by CLSI broth microdilution in M9-based minimal media ATCC 2511, with or without methionine; type: cell-based, Escherichia coli; details: for MIC90: Escherichia coli; for antibacterial activity against E. coli in words: E. coli K12
Experimental: To explore the SAR around the right hand aryl portion of the TAT series (Table 1), compounds were evaluated for their in vitro antibacterial activity against E. coli in the M9-based minimal media ATCC 2511. […]. An MIC shift between the two medias was used to indicate that antibacterial activity of the compounds remained on target, and this was happily seen with all of the most MIC active compounds generated in this study. Within the first series of compounds in Table 1, modifications to the phenyl ring are generally well tolerated. MICs remain within 2-fold of the initial hit 1 for the fluoro- and cyano- substituted compounds 1–8. […]. Incorporating the electron-donating group -OMe and sterically bulky iodine group in both ortho and para position, 17–20, maintained activity, whereas the introduction of the strong electron-withdrawing -CF3 group, 21 and 22, led to poorer MIC activity. […] The phenyl ring isosteres—thiazoles 25 and 26—both retained good MIC activity. Adding a methyl branch to the thioacetamide linker 28 and 29 led to a striking loss of activity. Replacement of the aryl group with the aliphatic groups cyclohexyl 31, cyclopentyl 32, tert-butyl groups 33 all reduced activity.
MICs were determined following CLSI broth microdilution susceptibility M100 guidelines. Compound solutions were prepared in DMSO and serially diluted 1:2 in 100 μL/well in 96 well round-bottom plates. E. coli K12 MG1655 was acquired from ATCC and strictly maintained in the M9-based media ATCC 2511. ATCC 2511 was also used for all further cultivation and MIC testing. Bacteria were grown from a single colony to a mid-log OD600 and frozen in 0.5 mL aliquots. These aliquots were used to directly inoculate the assay plates by diluting to an OD600 of 0.001 and plating 100 μL per well, allowing for ~10^5 CFU to be added to each well.

Solubility = type: physicochemical; details: pH 7.4 (Table S1); for solubility: read-out: Solubility Avg. Sol
Experimental: The in vitro ADME values (solubility, mouse plasma stability, human plasma stability, mouse metabolic stability, and human metabolic stability) were determined as previously reported.

E. coli K12 = assay: Whole cell accumulation in E. coli K12 (LC-MS/MS); design: dose or concentration left out as unconfirmed; details: 10 min, 37 °C; average of three biological replicates
Experimental: Drug uptake in whole cell E. coli K12, was performed following a modified protocol adapted from previously published studies [17, 25, 26, 27]. […] After incubation, 800 mL of antibiotic-exposed cells were spun (3 min, 13,000× g) through 700 mL of a 9:1 mix of AR20 and high temperature silicon oils (cooled to −80°C). The supernatant of silicone oil and free compound in PBS was carefully removed from pellet. Intracellular concentration of antibiotics within the bacterial cells was then determined.
For lysis, cells were resuspended in 200 mL of water and lysed by three freeze-thaw cycles of 3 min each in liquid nitrogen and in a 60 °C water bath. Lysed cells were pelleted and 150 mL of aqueous extract was transferred to a clean 1.5 mL microcentrifuge tube. Cell debris was resuspended in the remaining 50 mL of water and then extracted with 100 mL of methanol. Cells were again centrifuged, 100 mL of the methanol extract were removed and combined with the water supernatant. The extracts were allowed to rest at room temperature for 1 h before being centrifuged for 10 min at 20,000× g. Finally, extracts were filtered through a 0.22mm spin column to remove any remaining cellular debris.
Samples were analyzed with a Waters Acquity M Class series UPLC system and Xevo G2 QTOF tandem MS/MS with Zspray. Using a Phenomenex Kinetex 2.6 μm XB-C18, 100 Å (300 μm × 150 mm) column with solvent A, 0.1% formic acid in water, and solvent B, 0.1% formic acid in acetonitrile, 250 nL of extract were separated. […] High-resolution spectra were calibrated by co-infusion of 2 ng/mL leucine enkephalin lockspray (Waters). Data were quantified using Waters MassLynx software where the AUC was determined by integrating the daughter peak of the parent ion. Concentrations of the unknown compounds were determined by the linear fit of the standard curve. Concentrations were normalized to the culture density, determined via titers, to 10^10 CFU and are reported as the average of three biological replicates.

[1] = No Supplement (N.S.), ATCC 2511 media, 16 h, 37 °C
[2] = No Supplement (N.S.), ATCC 2511 media, 16 h, 37 °C, read-out: E. coli K12 MIC90
[3] = MG1655, read-out: E. coli K12 MIC90
[4] = 16 h, read-out: E. coli K12 MIC90

Row | Molecule | MIC90 (E. coli K12 MG1655; [2]) | MIC90 (E. coli K12 MG1655; [3]) | melting point | also measured
1 | 3-[(1H-1,2,3-triazol-4-yl)sulfanyl]-N-(2-fluorophenyl)propenamide [Compound 30] | – | – | – | E. coli K12 MIC90 (E. coli K12 MG1655; +20 μg/mL Methionine): 25 µg/mL; E. coli K12 MIC90 (E. coli K12 MG1655; [1]): 6.3 µg/mL
2 | CCCSc1ccc2nc(NC(=O)OC)[nH]c2c1 [Albendazole, reference compound] | – | – | – | solubility (Solubility; aqueous buffer): 5.33 µg/mL and 20.1 µM; %Soluble (Solubility): 20.1%
3 | NC(=O)N1c2ccccc2C=Cc2ccccc21 [Carbamazepine, reference compound] | – | – | – | %Soluble (Solubility): 85.1%; solubility (Solubility; pH 7.4, aqueous buffer): 20.1 µg/mL and 85.1 µM
4 | O=C(N[C@H](CO)[C@H](O)c1ccc([N+](=O)[O-])cc1)C(Cl)Cl [Chloramphenicol, reference compound] | 1.6 µg/mL (≈ 4.95 µM) | – | – | –
5 | O=C(CSc1c[nH]nn1)Nc1cccc(F)c1 [Compound 7, 2-[(1H-1,2,3-triazol-4-yl)sulfanyl]-N-(3-fluorophenyl)acetamide] | 1.6 µg/mL (≈ 6.34 µM) | 12.5 µg/mL (≈ 49.5 µM) | – | E. coli K12 MIC90 (E. coli K12 MG1655; [1]): ≤ 3.1 µg/mL
6 | N#Cc1cccc(NC(=O)CSc2c[nH]nn2)c1 [Compound 8, 2-[(1H-1,2,3-triazol-4-yl)sulfanyl]-N-(3-cyanophenyl)acetamide] | 3.1 µg/mL (≈ 12 µM) | 12.5 µg/mL (≈ 48.2 µM) | 158 to 159 °C | –
7 | O=C(CSc1c[nH]nn1)Nc1ccncc1 [Compound 10] | 12.5 µg/mL (≈ 53.1 µM) | 50 µg/mL (≈ 213 µM) | 187 to 188 °C | fold change (loss) in MIC activity relative to initial hit 1 (E. coli K12 MG1655; E. coli K12, no supplement): 8 fold
8 | O=C(CSc1cnn[nH]1)Nc1ccccc1 [Compound 11] | 1.6 µg/mL (≈ 6.83 µM) | 6.3 µg/mL (≈ 26.9 µM) | – | –
9 | N#Cc1cccnc1NC(=O)CSc1c[nH]nn1 [Compound 12] | 25 µg/mL (≈ 96 µM) | – | 113 to 114 °C | –
10 | O=C(CSc1c[nH]nn1)Nc1ncccc1F [Compound 13, 2-[(1H-1,2,3-triazol-4-yl)sulfanyl]-N-(3-fluoropyridin-2-yl)acetamide] | 6.3 µg/mL (≈ 24.9 µM) | 25 µg/mL (≈ 98.7 µM) | 99 to 100 °C | –
11 | O=C(CSc1c[nH]nn1)Nc1ccc(F)cn1 [Compound 14, 2-[(1H-1,2,3-triazol-4-yl)sulfanyl]-N-(5-fluoropyridin-2-yl)acetamide] | 3.1 µg/mL (≈ 12.2 µM) | 12.5 µg/mL (≈ 49.4 µM) | 151 to 153 °C | –
12 | N#Cc1ccc(NC(=O)CSc2c[nH]nn2)cn1 [Compound 15, 2-[(1H-1,2,3-triazol-4-yl)sulfanyl]-N-(6-cyanopyridin-3-yl)acetamide] | 6.3 µg/mL (≈ 24.2 µM) | 50 µg/mL (≈ 192 µM) | 198 to 199 °C | –
13 | N#Cc1ccc(NC(=O)CSc2c[nH]nn2)nc1 [Compound 16, 2-[(1H-1,2,3-triazol-4-yl)sulfanyl]-N-(5-cyanopyridin-2-yl)acetamide] | 3.1 µg/mL (≈ 11.9 µM) | 6.3 µg/mL (≈ 24.2 µM) | 118 to 119 °C | –
14 | COc1ccccc1NC(=O)CSc1c[nH]nn1 [Compound 17, 2-[(1H-1,2,3-triazol-4-yl)sulfanyl]-N-(2-methoxyphenyl)acetamide] | 6.3 µg/mL (≈ 23.8 µM) | – | 99 to 100 °C | –
15 | COc1ccc(NC(=O)CSc2c[nH]nn2)cc1 [Compound 18, 2-[(1H-1,2,3-triazol-4-yl)sulfanyl]-N-(4-methoxyphenyl)acetamide] | 3.1 µg/mL (≈ 11.7 µM) | 12.5 µg/mL (≈ 47.3 µM) | 130 to 131 °C | –
16 | O=C(CSc1c[nH]nn1)Nc1ccccc1I [Compound 19, 2-[(1H-1,2,3-triazol-4-yl)sulfanyl]-N-(2-iodophenyl)acetamide] | 3.1 µg/mL (≈ 8.61 µM) | – | 122 to 124 °C | –
17 | O=C(CSc1c[nH]nn1)Nc1ccc(I)cc1 [Compound 20, 2-[(1H-1,2,3-triazol-4-yl)sulfanyl]-N-(4-iodophenyl)acetamide] | 6.3 µg/mL (≈ 17.5 µM) | 25 µg/mL (≈ 69.4 µM) | 166 to 168 °C | –
18 | O=C(CSc1c[nH]nn1)Nc1ccccc1C(F)(F)F [Compound 21] | 25 µg/mL (≈ 82.7 µM) | – | 83 to 85 °C | –
19 | O=C(CSc1c[nH]nn1)Nc1ccc(C(F)(F)F)cc1 [Compound 22] | 25 µg/mL (≈ 82.7 µM) | – | 163 to 165 °C | –
20 | CN(C(=O)CSc1c[nH]nn1)c1ccc(F)cc1 [Compound 23] | 25 µg/mL (≈ 93.9 µM) | – | 95 to 96 °C | –
21 | CCN(C(=O)CSc1c[nH]nn1)c1ccccc1F [Compound 24] | 12.5 µg/mL (≈ 44.6 µM) | 25 µg/mL (≈ 89.2 µM) | 82 to 83 °C | –
22 | CCOC(=O)c1cnc(NC(=O)CSc2c[nH]nn2)s1 [Compound 26, Ethyl 2-{2-[(1H-1,2,3-triazol-4-yl)sulfanyl]acetamido}thiazole-5-carboxylate] | 3.1 µg/mL (≈ 9.89 µM) | 12.5 µg/mL (≈ 39.9 µM) | 172 to 174 °C | –
23 | O=C(CSc1c[nH]nn1)Nc1ncccn1 [Compound 27] | 25 µg/mL (≈ 106 µM) | – | 136 to 138 °C | –
24 | O=C(CSc1c[nH]nn1)NC1CCCCC1 [Compound 31] | 25 µg/mL (≈ 104 µM) | – | 118 to 119 °C | –

Row | Molecule | MIC90 (E. coli K12 MG1655; [2]) | MIC90 (E. coli K12 MG1655; [3]) | melting point | also measured
25 | O=C(CSc1c[nH]nn1)NC1CCCC1 [Compound 33] | 12.5 µg/mL (≈ 55.2 µM) | 25 µg/mL (≈ 110 µM) | 108 to 109 °C | –
26 | O=C(CSc1cnn[nH]1)NCc1ccccc1F [Compound 38, 2-[(1H-1,2,3-triazol-5-yl)sulfanyl]-N-(2-fluorobenzyl)acetamide] | 3.1 µg/mL (≈ 11.6 µM) | – | – | –
27 | O=C(CSc1cnn[nH]1)NCc1ccc(F)cc1 [Compound 39, 2-[(1H-1,2,3-triazol-5-yl)sulfanyl]-N-(4-fluorobenzyl)acetamide] | 6.3 µg/mL (≈ 23.7 µM) | 50 µg/mL (≈ 188 µM) | 122 to 124 °C | –
28 | O=C(CSc1cnn[nH]1)NCc1ccccn1 [Compound 40] | 12.5 µg/mL (≈ 50.1 µM) | > 50 µg/mL | – | –
29 | O=C(CSc1cnn[nH]1)NCc1cccc(F)c1 [Compound 41] | 6.3 µg/mL (≈ 23.7 µM) | – | 85 to 86 °C | –
30 | O=C(CSc1cnn[nH]1)NCc1cc(F)cc(C(F)(F)F)c1 [Compound 42] | 50 µg/mL (≈ 150 µM) | – | 82 to 84 °C | –
31 | O=C(CSc1cnn[nH]1)NCc1ccc(C(F)(F)F)cc1 [Compound 44] | 50 µg/mL (≈ 158 µM) | – | 133 to 135 °C | –
32 | O=C(CSc1cnn[nH]1)NCc1ccc(OC(F)(F)F)cc1 [Compound 45] | 100 µg/mL (≈ 301 µM) | – | 131 to 133 °C | –
33 | CN(Cc1ccccc1F)C(=O)CSc1cnn[nH]1 [Compound 46] | 50 µg/mL (≈ 178 µM) | – | – | –
34 | N[C@H]1CCN(c2ccc(NC(=O)CSc3cnn[nH]3)cc2)C1 [Compound 50] | > 200 µg/mL | – | – | Whole Cell Accumulation in E. coli (E. coli K12): 9.0 ± 2 μM/10^10 CFU
35 | O=C(CSc1cnn[nH]1)Nc1ccc(N2C[C@@H]3NCCO[C@H]3C2)cc1 [Compound 53] | > 200 µg/mL | – | – | Whole Cell Accumulation in E. coli (E. coli K12): 19 ± 1 μM/10^10 CFU
36 | CN1CCN(c2ccc(NC(=O)CSc3cnn[nH]3)cc2)CC1 [Compound 56] | > 200 µg/mL | – | – | Whole Cell Accumulation in E. coli (E. coli K12): 4.7 ± 2 μM/10^10 CFU
37 | Cn1nnnc1SCC(=O)Nc1ccccc1 [Compound 62] | > 200 µg/mL | – | – | antibacterial activity against E. coli in words (E. coli K12 MG1655): inactive
38 | O=C(CSc1nncs1)Nc1ccccc1 [Compound 63] | > 200 µg/mL | – | 109 to 110 °C | antibacterial activity against E. coli in words (E. coli K12 MG1655): inactive
39 | Cc1nnc(SCC(=O)Nc2ccccc2)s1 [Compound 64] | > 200 µg/mL | – | 153 to 154 °C | antibacterial activity against E. coli in words (E. coli K12 MG1655): inactive
40 | Cn1nnnc1SCC(=O)Nc1ccccc1F [Compound 65] | > 200 µg/mL | – | 137 to 139 °C | antibacterial activity against E. coli in words (E. coli K12 MG1655): inactive
41 | O=C(CSc1nncs1)Nc1ccccc1F [Compound 66] | > 200 µg/mL | – | 123 to 125 °C | antibacterial activity against E. coli in words (E. coli K12 MG1655): inactive
42 | Cc1nnc(SCC(=O)Nc2ccccc2F)s1 [Compound 67] | > 200 µg/mL | – | 111 to 113 °C | antibacterial activity against E. coli in words (E. coli K12 MG1655): inactive
43 | Cn1nncc1SCC(=O)Nc1ccccc1 [Compound 68] | > 200 µg/mL | – | – | antibacterial activity against E. coli in words (E. coli K12 MG1655): inactive
44 | Cn1cc(SCC(=O)Nc2ccccc2)nn1 [Compound 69] | > 200 µg/mL | – | – | antibacterial activity against E. coli in words (E. coli K12 MG1655): inactive
45 | Cn1nncc1SCC(=O)Nc1ccccc1F [Compound 70] | > 200 µg/mL | – | – | antibacterial activity against E. coli in words (E. coli K12 MG1655): inactive
46 | Cn1cc(SCC(=O)Nc2ccccc2F)nn1 [Compound 71] | > 200 µg/mL | – | – | antibacterial activity against E. coli in words (E. coli K12 MG1655): inactive
47 | Cc1cc(NS(=O)(=O)c2ccc(N)cc2)no1 [Sulfamethoxazole, reference compound] | – | – | – | MIC90 (E. coli K12 MG1655; [4]): 0.98 µg/mL (≈ 3.87 µM)
48 | COc1cc(Cc2cnc(N)nc2N)cc(OC)c1OC [Trimethoprim, reference compound] | – | – | – | MIC90 (E. coli K12 MG1655; [4]): 0.98 µg/mL (≈ 3.38 µM)
